ChEMBL document CHEMBL5620379, “Discovery, SAR and mechanistic studies of quinazolinone-based acetamide derivatives in experimental visceral leishmaniasis” (Eur J Med Chem, 2023)
pIC50: −log10 of the molar value.

Tests used:
J774 [1] = test: Cytotoxicity against mouse J774 cells at 12.5 uM incubated for 72 hrs by MTT assay relative to control; type: toxicity, cell-based; settings: j774, 72 h
J774 [2] = test: Cytotoxicity against mouse J774 cells at 50 uM incubated for 72 hrs by MTT assay relative to control; type: toxicity, cell-based; settings: j774, 72 h
J774 [3] = test: Cytotoxicity against mouse J774 cells at 25 uM incubated for 72 hrs by MTT assay relative to control; type: toxicity, cell-based; settings: j774, 72 h
Leishmania donovani [4] = test: Antileishmanial activity against Leishmania donovani amastigotes infected in J774 macrophage assessed as inhibition of parasite growth incubated for 48 hrs by luciferase assay; type: functional, organism-based; settings: J774, 48 h
J774 [5] = test: Cytotoxicity against mouse J774 macrophage incubated for 72 hrs by MTT assay; type: functional
Leishmania donovani [6] = test: Antileishmanial activity against Leishmania donovani promastigotes measured after 48 hrs by MTT assay; type: functional, organism-based
[7] = Selectivity index, ratio of CC50 for mouse J774 macrophage to IC50 for Leishmania donovani amastigotes infected in J774 macrophage; type: toxicity; settings: J774 macrophages, read-out: Ratio CC50/IC50
Leishmania donovani [8] = test: Antileishmanial activity against Leishmania donovani promastigotes at 25 uM measured after 48 hrs by MTT assay relative to control; type: functional
Leishmania donovani [9] = test: Antileishmanial activity against Leishmania donovani amastigotes infected in J774 macrophage assessed as inhibition of parasite growth at 25 uM incubated for 48 hrs by luciferase assay relative to control; type: functional; parameters: scale not given: the % may be the effect or the level left

Structure (SMILES)	Activity (J774 [1]) [%]	Activity (J774 [2]) [%]	Activity (J774 [3]) [%]	pIC50 (Leishmania donovani [4])	CC50 (J774 [5]) [µM]	pIC50 (Leishmania donovani [6])	selectivity ratio [7]	Activity (Leishmania donovani [8]) [%]	Activity (Leishmania donovani [9]) [%]
COc1cc(NC(=O)COc2ccc(-c3nc4ccccc4c(=O)n3C)cc2)cc(OC)c1OC	69.04	39.78	51.67	–	–	–	–	–	–
Cn1c(-c2ccc(OCC(=O)Nc3cccc4cccnc34)cc2)nc2ccccc2c1=O	82.65	42.14	76.21	4.73	42.7	4.79	2.32	–	–
Cn1c(-c2ccc(OCC(=O)Nc3ccccc3)cc2)nc2ccccc2c1=O	87.94	42.62	78.47	4.65	43.2	4.75	1.91	–	–
Cn1c(-c2ccc(OCC(=O)Nc3ccc(Cl)cc3)cc2)nc2ccccc2c1=O	85.35	58.88	81.59	4.65	61.8	4.79	2.78	–	–
Cc1ccc(NC(=O)COc2ccc(-c3nc4ccccc4c(=O)n3C)cc2)cc1Cl	68.41	47.78	52.13	–	–	–	–	–	–
Cc1ccc(NC(=O)COc2ccc(-c3nc4ccccc4c(=O)n3C)cc2)cc1	85.59	49.93	81.98	4.61	50.7	4.66	2.07	–	–
Cc1ccc(NC(=O)COc2ccc(-c3nc4ccccc4c(=O)n3C)cc2)cc1C	67.4	31.465	46.38	–	–	–	–	–	–
Cn1c(-c2cccc(OCC(=O)Nc3cccc(C(F)(F)F)c3)c2)nc2ccccc2c1=O	69.23	36.03	53.5	–	–	–	–	–	–
COc1ccc(NC(=O)COc2cccc(-c3nc4ccccc4c(=O)n3C)c2)cc1	64.08	29.78	52.92	–	–	–	–	–	–
CC(C)c1ccc(NC(=O)COc2ccc(-c3nc4ccccc4c(=O)n3C)cc2)cc1	69.76	49.31	67.4	–	–	–	–	–	–
CCn1c(-c2ccc(OCC(=O)Nc3ccc(OC)cc3)cc2)nc2ccccc2c1=O	67.45	43.01	62.11	–	–	–	–	–	–
CCn1c(-c2ccc(OCC(=O)Nc3ccc(C)cc3)cc2)nc2ccccc2c1=O	85.97	37.91	68.99	4.99	40.9	5.07	4.03	–	–
Cn1c(-c2ccc(OCC(=O)Nc3ccccn3)cc2)nc2ccc(Cl)cc2c1=O	65.58	39.88	59.37	–	–	–	–	–	–
CCn1c(-c2ccc(OCC(=O)Nc3ccc(F)cc3)cc2)nc2ccccc2c1=O	59.51	34.39	43.73	–	–	–	–	–	–
Cn1c(-c2ccc(OCC(=O)Nc3ccc4c(c3)OCO4)cc2)nc2ccccc2c1=O	85.01	45.89	78.08	4.67	48.5	4.76	2.25	–	–
CCn1c(-c2ccc(OCC(=O)Nc3ccc(Cl)cc3)cc2)nc2ccccc2c1=O	67.21	32.52	47.53	–	–	–	–	–	–

Structure (SMILES)	Activity (J774 [1]) [%]	Activity (J774 [2]) [%]	Activity (J774 [3]) [%]	pIC50 (Leishmania donovani [4])	CC50 (J774 [5]) [µM]	pIC50 (Leishmania donovani [6])	selectivity ratio [7]	Activity (Leishmania donovani [8]) [%]	Activity (Leishmania donovani [9]) [%]
Cn1c(-c2ccc(OCC(=O)Nc3ccccn3)cc2)nc2cc(F)ccc2c1=O	85.3	30.36	58.74	5.04	35.1	5.20	3.82	–	–
Cn1c(-c2ccc(OCC(=O)Nc3ccc4c(c3)CCC4)cc2)nc2ccccc2c1=O	87.89	36.13	53.88	5.21	31.7	5.08	5.09	79.73	78.87
CCn1c(-c2ccc(OCC(=O)Nc3cccc(C(F)(F)F)c3)cc2)nc2ccccc2c1=O	87.75	47.72	77.31	4.68	45	4.70	2.15	–	–
Cn1c(-c2ccc(OCC(=O)Nc3ccncc3)cc2)nc2ccccc2c1=O	71.91	40.96	51.89	–	–	–	–	–	–
Cn1c(-c2ccc(OCC(=O)Nc3ccc(C(C)(C)C)cc3)cc2)nc2ccccc2c1=O	59.75	26.84	55.66	–	–	–	–	–	–
Cn1c(-c2ccc(OCC(=O)Nc3cccc(C(F)(F)F)c3)cc2)nc2ccccc2c1=O	86.45	48.49	78.66	4.66	47.7	4.91	2.17	–	–
Cn1c(-c2ccc(OCC(=O)Nc3ccc(F)cc3)cc2)nc2ccccc2c1=O	82.8	38.87	69.62	4.94	41.6	5.10	3.62	–	–
CCn1c(-c2ccc(OCC(=O)Nc3ccccn3)cc2)nc2ccccc2c1=O	84.82	38.97	79.09	4.57	39.5	4.62	1.45	–	–
Cn1c(-c2cccc(OCC(=O)Nc3ccc(F)cc3)c2)nc2ccccc2c1=O	66.92	31.32	56.86	–	–	–	–	–	–
COc1ccc(NC(=O)COc2ccc(-c3nc4ccccc4c(=O)n3C)cc2)cc1	83.71	35.93	78.71	4.58	39.2	4.85	1.5	–	–
Cn1c(-c2cccc(OCC(=O)Nc3ccc(Cl)cc3)c2)nc2ccccc2c1=O	84.53	55.23	71.35	4.92	54.1	5.04	4.54	–	–
COc1ccc(NC(=O)COc2ccc(-c3nc4ccccc4c(=O)n3C)cc2)cc1OC	83.52	37.47	67.45	4.98	37	5.10	3.53	–	–
Cc1ccc(NC(=O)COc2cccc(-c3nc4ccccc4c(=O)n3C)c2)cc1	65.55	31.44	41.69	–	–	–	–	–	–
CCc1ccc(NC(=O)COc2ccc(-c3nc4ccccc4c(=O)n3C)cc2)cc1	81.78	33.38	79.14	4.70	38.1	4.82	1.89	–	–
Cn1c(-c2ccc(OCC(=O)Nc3ccc([N+](=O)[O-])cc3)cc2)nc2ccccc2c1=O	84.05	55.85	80.58	4.65	54.4	4.73	2.45	–	–
